Source: US12383753B2, “Method and system of sensitizing cancer cells to chemical treatment by plasma based activation” (The George Washington University, priority 2018, dated 2025)
“Also recorded” adds a separate entry of the source.

Tests used:
[1] = tested on: human pancreas adenocarcinoma (PA-TU-8988T) cells; assay: MTT cell viability assay of cancer cells with or without CAP activation, followed by reactive species treatment; type: cell-based; details: for cell viability: 10 μM H2O2 on CAP-activated cells, 12.5 kHz, 1.53 lpm
Experimental: In this example, human pancreas adenocarcinoma (PA-TU-8988T) cells were used in conjunction with a Dulbecco's modified Eagle's medium (DMEM, 11965-118) from Life Technologies. The DMEM was mixed with 1% (v/v) antibiotic (penicillin and streptomycin) solution (Life Technologies). The media used in the cell culture were composed of DMEM supplemented with 10% (v/v) fetal bovine serum (ThermoFisher Scientific). The cells were cultured in a 96-well plate (61406-081, Corning). 100 μL of the cells-harvesting solution (3×10^4 cells/mL) were seeded in each well. Cancer cells were grown for 1 day under the standard culture condition (a humidified, 37 C, 5% CO2 environment). The media used to culture cells overnight were removed before any experiments were performed.
In the example system 200 in FIG. 2A, basic protocols were provided to determine the activation state of cancer cells. To perform the CAP sensitivity treatment, each well of the well plate 230 was filled with a 50 μL DMEM solution with the growing cells. Each of the cells in the 96-well plate 230 was treated by the CAP jet from the CAP jet device 202 vertically. The gap between the bottom of the 96-well plate 230 and the CAP source is 3 cm in this example. After the CAP treatment, 50 μL of new DMEM was transferred to replace the medium in the wells of the 96-well plate 230 treated by the CAP jet device 202.
As a result, cancer cells in the activation state were obtained when the CAP sensitivity treatment time was longer than 20 seconds. Reactive treatment was applied in the form of new H2O2 − DMEM added to the cells in the well plate 230. To make the new H2O2 − DMEM, 9.8 M H2O2 standard solution (Sigma-Aldrich, 216763) was added to DMEM with a designed concentration. Then, H2O2 − DMEM or NO2 − DMEM was transferred to affect the activated cancer cells in the designed experiments. The cell viability was measured by using MTT assay according to the standard protocols provided by the manufacturer (Sigma-Aldrich, M2128). The 96-well plate 230 was read by an H1 microplate reader manufactured by […] at an absorbance of 570 nm after shaking in the reader for 30 seconds. To perform the data analysis, the measured absorbance at 570 nm was processed to be a relative cell viability by the division of absorbance between the experimental group and the control group.
The CAP treatment and removal of the medium containing reactive species is the basic strategy to obtain the cancer cells in the activated state. Thus, the process for increasing the effectiveness of treating cancer cells with a follow up reactive treatment is as follows. The direct CAP sensitivity treatment (1 min) was first performed on each well of the 96-well plate 230. The cancer cells in the wells were immersed in 50 μL of DMEM. The DMEM was quickly removed (less than a minute) after the CAP sensitivity treatment. Then, the CAP-activated (treated) cancer cells were obtained. The cytotoxicity of H2O2 (10 μM) treatment on the CAP-treated (activated) cancer cells were compared with that on cancer cells without the CAP sensitivity treatment. The H2O2-containing DMEM was made by adding H2O2 standard solution (Sigma-Aldrich, 216763) in DMEM with a designed concentration (10 μM). All cells were cultured for 3 days before the final cell viability assay using a MTT assay (Sigma-Aldrich, M2128). The cell viability assay was performed following the standard protocols provided by the manufacturer. Finally, the absorbance at 570 nm was processed to be a relative cell viability (fold) by the division of absorbance between the experimental group and the control group. In the control group, cancer cells were just cultured in the untreated DMEM.

[2] = tested on: human pancreas adenocarcinoma (PA-TU-8988T) cells; assay: as above; type: cell-based
[3] = cited from earlier work
[4] = low concentration, CAP-activated cancer cells
[5] = low concentration, same cancer cells without activation

Question: For OO [H2O2], which “killing effect (in words)” value ([1]; 10 μM H2O2, CAP-activated cells) is on record?
Answer: The value was “significant killing effect”.

Question: What about the “killing effect (in words)” value ([1]; 10 μM H2O2, cells without CAP treatment (activation)) of the same compound?
Answer: Its value is “will not cause a killing effect; also recorded: does not cause a killing effect”.

Question: And the cell viability ([1]; discharge voltage 3.15 kV)?
Answer: Its cell viability is 0.73 fold.

Question: And the cell viability ([1]; discharge voltage 3.78 kV)?
Answer: The cell viability was 0.38 fold.

Question: What about the cell viability ([1]; discharge voltage 4.67 kV) of the same compound?
Answer: The cell viability was 0.71 fold.

Question: What about the “effect on cell viability (in words)” value ([1]; H2O2 DMEM applied two hours after CAP treatment) of the same compound?
Answer: The value was “does not have any effect on cell viability”.

Question: What about the “killing effect (in words)” value [1, 4] of the same compound?
Answer: Its value is “noticeable killing effect”.

Question: What about the “killing effect (in words)” value [1, 5] of the same compound?
Answer: The value was “will not cause significant killing effect”.

Question: What about the killing effect ([2]; 22 μM H2O2, cells activated by CAP (bars 414 and 444)) of the same compound?
Answer: Its killing effect is ~50%.

Question: And the killing effect ([2]; 22 μM H2O2, cells without activation (bars 416 and 446))?
Answer: Its killing effect is “about 10%”.

Question: And the “killing of cancer cells (in words)” value ([2]; 22 μM H2O2-DMEM, cells activated by CAP treatment)?
Answer: Its value is “strongly kill”.

Question: What about the “inhibition on the cell viability (in words)” value ([2]; 22 μM H2O2-DMEM, cells without CAP treatment) of the same compound?
Answer: Its value is “very small inhibition”.

Question: And the “killing effect (in words)” value ([2]; H2O2 15 μM and 22 μM, CAP-activated cells)?
Answer: The value was “strong killing effect”.

Question: What about the “killing effect (in words)” value ([2]; H2O2-DMEM 15 μM and 22 μM, cells without activation) of the same compound?
Answer: The value was “did not cause strong killing effect”.

Question: For O=NO [NO2 −], which “killing effect (in words)” value [1, 4] is on record?
Answer: Its value is “noticeable killing effect”.

Question: What about the “killing effect (in words)” value [1, 5] of the same compound?
Answer: The value was “will not cause significant killing effect”.

Question: Which “concentration range found in CSF” value [3] does the source give for Cn1nnc2c(C(N)=O)ncn2c1=O [TMZ, Temozolomide] here?
Answer: The value was 10 to 25 µM.
